Experimental data taken from a melting point compilation (Tetko et al.; mined from patent text by program, amines drawn as free bases though some values may be those of a salt).

| melting point | SMILES |
| --- | --- |
| 240 to 242 °C | O=Cc1c2ccc(F)cc2c(C=O)c2ccc(F)cc12 |
| 85 to 86 °C | C(=C\c1nc(COc2ccc(CCCCn3ccnc3-c3ccccc3)cc2)co1)/c1ccccc1 |
| 74 to 76 °C | CCCCCCCCCCCCCCCC(=O)NCCCC |
| 239 °C | COC(=O)c1ccc(NC(=O)C(F)(F)F)c(C(=O)OC)c1 |
| 95 to 98 °C | O=C(COc1cc(F)ccc1C(=O)NCc1cccc([N+](=O)[O-])c1)OCc1ccccc1 |
| 100 to 102 °C | C#CCN1C(=O)COc2ccc(C3CC(=O)C(C(CC)=NOCC)=C(O)C3)cc21 (stereo not drawn) |
| 35 to 36 °C | CCCCC(CC)COC(=O)c1cc(OC)c(O)c(OC)c1 (stereo not drawn) |
| 77 to 80 °C | CC1(C)CC(SCc2c(F)cccc2F)=NO1 |
| 258 °C | Nc1ccc(-c2noc(-c3cnc4ccc(-c5ccc(C(F)(F)F)cc5)cn34)n2)cn1 |
| 117 to 118 °C | COc1cc(C(O)c2ccnc3ccccc23)ccc1OCc1ccccc1 (stereo not drawn) |
| 296 to 298 °C | O=C(c1cccc(F)c1)N1CCC2(CCn3c(nc(-c4ccncn4)cc3=O)N2)C1 (stereo not drawn) |
| 190 °C | CCCOc1ccc(S(=O)(=O)N2CC[C@@H](N(C)C)C2)cc1-c1nc2cc3ncn(Cc4ccccc4)c3cc2c(=O)[nH]1 |
| 145 to 146 °C | Cc1oc(-c2ccccc2)nc1CCC(O)c1ccc(CCC2OC(=O)NC2=O)cc1 (stereo not drawn) |
| 120 °C | CCCC1CC(NCC)=C(c2cccc(C(F)(F)F)c2)C1=O (stereo not drawn) |
| 250 to 251 °C | Fc1cc(F)c2c(c1)CC(n1cc[nH]c1=S)CC2 (stereo not drawn) |
| 163 °C | Cc1ccnc(NC(=O)c2ccn3c2CSC3c2cccnc2)c1 (stereo not drawn) |
| 153 to 156 °C | O=C(c1ccccc1Nc1ccncc1)N1CCCCC1 |
| 134 to 136 °C | CON(C(=N)N)c1nc(C)cc(C)n1 |
| 66 °C | COC[C@@H]1CCCN1S(=O)(=O)c1ccc(Cl)c(COc2cccc3c(-n4ccnc4)cc(C)nc23)c1Cl |
| 207 to 209 °C | Cc1noc(NS(=O)(=O)c2ccccc2-c2cc3ccccc3n2S(=O)(=O)c2ccccc2)c1C |
| 276 °C | Cc1ccc2c(c1)c(N1CCN(C(=O)c3ccco3)CC1)c(C#N)c(=O)n2Cc1ccc(F)cc1 |
| 186 °C | Cn1cncc1C(O)c1ccc2[nH]c(=O)cc(-c3cccc(Cl)c3)c2c1 (stereo not drawn) |

| melting point | SMILES |
| --- | --- |
| 92 to 93 °C | NC(=S)c1c(F)c(F)c(F)c(F)c1F |
| 212 to 215 °C | O=C(O)c1cc(Cl)cc2ccoc12 |
| 259 to 261 °C | N#Cc1c(-c2cccc(N)c2)cc(-c2ccccc2O)nc1NC(=O)c1ccccc1 |
| 119 to 121 °C | COC(=O)[C@H](CSC(=O)N(C)C)NC(C)=O |
| 135 to 137 °C | CCn1nnnc1CCC1(C)Cn2cc([N+](=O)[O-])nc2O1 (stereo not drawn) |
| 156 to 158 °C | COC(=O)Cn1nnnc1-c1ccc(Cl)cc1 |
| 296 °C | CC1SC(=O)NN=C1c1ccc2c(c1)C(=Cc1ccccn1)C(=O)N2 (stereo not drawn) |
| 210 to 212 °C | CN1CCN(c2cccc3c2C[C@H](NC(=O)c2ccc(N4CCOCC4)cc2)CO3)CC1 |
| 125 °C | O=C(O)C1=C(CCl)CS[C@@H]2[C@H](NC(=S)Cc3cc(Cl)ccc3Cl)C(=O)N12 |
| 198 to 200 °C | Nc1ccc(C(=O)NCC(=O)O)cc1F |
| 320 to 324 °C | O=C(O)c1cc(Cl)ccc1SSc1ccc(Cl)cc1C(=O)O |
| 70 to 71 °C | Cc1oc(-c2ccccc2)nc1COc1ccc(CCCO)cc1 |
| 180 to 182 °C | O=c1[nH]c(=S)[nH]cc1CCCc1ccccc1 |
| 49 to 51 °C | COC(=O)c1ccc(OC(C)=O)c(-n2cccc2)c1 |
| 231 to 233 °C | COc1ccnc(CCc2nc3cc(-c4ccc(S(=O)(=O)Nc5ccccc5)cc4)cnc3[nH]2)c1 |
| > 260 °C | Nc1ccc(O)c(C(=O)Nc2cccc3[nH]ccc23)c1 |
| 240 °C | O=C1C(c2ccc(O)cc2)=C(Br)c2ccc(O)cc21 |
| 216 to 218 °C | O=[N+]([O-])c1ccc(Oc2ccc(C3(c4ccc(Oc5ccc([N+](=O)[O-])cc5)cc4)CCC(c4ccccc4)CC3)cc2)cc1 |
| 149 to 151 °C | O=C(CSc1ccc(O)cc1)NC(=O)c1ccccc1 |
| 171 °C | COc1cc(Nc2nccc(-c3cncs3)n2)cc(OC)c1OC |
| 203 °C | O=C(Nc1ccc(C(F)(F)F)cn1)Oc1ccccc1 |
| 131 to 133 °C | CC(=O)C(=NNc1ccccc1)C(=O)N(C)C |

| melting point | SMILES |
| --- | --- |
| 222 to 225 °C | Cc1c(OCC(C)(C)CS(N)(=O)=O)nn2ccnc2c1C |
| 127 to 129 °C | COC(=O)C1=Cc2cc([N+](=O)[O-])ccc2N(C)CCC1 |
| 116 to 118 °C | Cc1ccccc1Nc1c(C(=O)C(C)C)cnc2c(CO)cccc12 |
| 228 to 230 °C | CC12CCC(C(=O)O)=CC1=CCc1cc(Cl)ccc12 (single isomer, unassigned; (-)) |
| 211 to 212 °C | Cc1ccc(Nc2nnc(-c3cccc(OCc4ccccc4)c3)s2)cc1Cl |
| 89 °C | CC(C)(C)C1=C(O)C(=O)c2ccccc2C1=O |
| 220 to 224 °C | FC(F)Oc1ccc2c(Cc3c(Cl)cncc3Cl)nnc(-n3cncn3)c2c1 |
| 42 to 43 °C | Cc1cc(OCc2ccccc2)ccc1OCc1ccccc1 |
| 119 to 120 °C | O=C1c2cccc(Br)c2CN1Cc1cccc(C(F)(F)F)c1 |
| 79 to 80 °C | CCOC(=O)c1ccc(O)c(F)c1 |
| 134 to 135 °C | Cc1c(OCC(F)(F)F)ccnc1CSc1nc2ccccc2n1N |
| 94.5 to 96 °C | Cc1nc(C)c(C(C)(O)c2ccccc2)o1 (stereo not drawn) |
| 80 to 82 °C | COC(=O)c1ccccc1NC(=O)Cc1ccccc1C |
| 55 °C | Cc1cc2ccccc2c(Cl)c1C |
| 149 °C | CCOC(=O)c1cn(CC)c2nc(OC)ncc2c1=O |
| 98.8 to 99.8 °C | C=CCc1c(OC(C)=O)ccc2c(C)cc(=O)oc12 |
| 53 to 57 °C | COC(=O)c1cc(-c2cccc([N+](=O)[O-])c2)cc2c1OCC2 |
| 50 to 51 °C | C#Cc1ccc(C(=O)NCC(N)C(c2ccccc2)(c2ccccc2)c2ccccc2)cc1 (stereo not drawn) |
| 85 °C | CCCN(Cc1ccc(C(=O)N(CCC)C2CCc3ncsc3C2)cc1)C1CCc2ncsc2C1 (stereo not drawn) |
| 147 to 148 °C | CCOC(=O)c1cc(-n2c(=O)ccn(C)c2=O)ccc1Cl |

| SMILES | melting point |
| --- | --- |
| Cc1nnc2n1-c1ccc(I)cc1C(c1ccccc1F)=NC2 | 235 to 238 °C |
| COc1ccc(N(C(=O)CN2C(=O)C(Cc3n[nH]c4ncccc34)C(=O)N(c3ccccc3)c3ccccc32)C(C)C)cc1 (stereo not drawn) | 156 to 158 °C |
| O=C(Nc1cnc2c(c1)nc1n2CCC1)c1cc2cc(F)ccc2n1Cc1cccc(F)c1 | 227 to 229 °C |
| Oc1cccc(C2CCCN(CCc3c[nH]c4ccccc34)C2)c1 (stereo not drawn) | 130 to 135 °C |
| CC(=O)C(C#N)c1ccccc1 (stereo not drawn) | > 215 °C |
| O=C(O)CSC1c2ccccc2COc2ccc(OCc3ccc4ccccc4n3)cc21 (stereo not drawn) | 174 to 179 °C |
| COc1cc(NC(=O)C2C(=O)N(C)C(=O)N(C)C2=O)ccc1O | 252 to 253 °C |
| CN(C)S(=O)(=O)C(Br)(Br)Sc1ccccc1 | 128 to 129 °C |
| O=C(CF)c1ccc(F)cc1F | 57 to 58 °C |
